Tested on: PILRA G78 expressing HEK293 cells
Test: mTOR dependence of anti-PILRA antibody-induced pSTAT3 Y705
Assay type: cell-based, human
Conditions: 2 hours pre-incubation; AZD8055 3.125-50 nM, Torin 1 31.25-500 nM; then 100 nM anti-PILRA mAb 30 mins
Method: To assess if pSTAT3 Y705 induction is mTOR dependent, cells were dosed with mTOR inhibitors Torin 1 (31.25-500 nM) or AZD8055 (3.125-50 nM) for 2 hours before spiking in 100 nM anti-PILRA mAb or isotype control for 30 mins.

SMILES | blocking of anti-PILRA antibody-induced pSTAT3 Y705 by mTOR inhibitor
COc1ccc(-c2ccc3c(N4CCOC[C@@H]4C)nc(N4CCOC[C@@H]4C)nc3n2)cc1CO [AZD8055] | partially blocked
CCC(=O)N1CCN(c2ccc(-n3c(=O)ccc4cnc5ccc(-c6cnc7ccccc7c6)cc5c43)cc2C(F)(F)F)CC1 [Torin 1] | partially blocked
